In patent publication US9498546B2, “Synthesis and application of novel imaging agents conjugated to DPA 713 analogs for imaging inflammation” (THE JOHNS HOPKINS UNIVERSITY, priority 2012, dated 2016):

Key:
[1] = tested on: LPS-stimulated J774 macrophages (TSPO); test: In vitro J774 murine macrophage uptake studies (fluorescence microscopy, with or without blocking); type: cell-based
Experimental: FIG. 4 is a series of photomicrographs (A-I) of J774 macrophages that were cultured in 8 well chamber slides to 80% confluence. LPS was then added to each well for 24 hours to stimulate the cells. […] The cells were returned to the incubator for either 1 hour or 24 hours. The solutions were then removed, the nuclei were labeled with Hoechst 33342 and the cells were briefly washed before mounting and viewing under a fluorescence microscope.
In vitro J774 murine macrophage uptake studies. The immortalized J774 murine macrophage-like cell line was cultured in RPMI1640+20% FBS+1% penicillin+ streptomycin media in 8-well chamber slides (Fisher Scientific) to approximately 80% confluence. The cells were then stimulated with 1 ng/mL of LPS (Sigma, E. coli 055:B5) for 24 hours prior to addition of the probes of the present invention to 40 nM final concentration. […] The cells were exposed to the fluorescent probes and blocking compounds for either 1 hour or 24 hours prior to exposing to 1 ng/mL of Hoechst 33342 dye (Invitrogen), followed by washing twice briefly with PBS, pH 7.5. The chambers were then removed and the slide mounted with Dako Cytomation aqueous mounting media and a glass coverslip. The cells were visualized using a Nikon 80i upright epifluorescence microscope equipped with a Nikon DS-QilMc darkfield CCD camera and processed using Nikon Image Software on an adjacent workstation. The dyes were excited using either a Nikon Intensilight C-HGFI lamp (IRDye680 and Hoechst) or a Sutter Instruments Co. (Novato, Calif.) LB/LB-30 xenon lamp (IRDye800).
J774 Cell Uptake Studies. J774 macrophages were cultured in 8 well chamber slides to 80% confluence. LPS was then added to each well for 24 hours to stimulate the cells. […] The cells were returned to the incubator for either 1 hour or 24 hours. The solutions were then removed, the nuclei were labeled with Hoechst 33342 and the cells were briefly washed before mounting and viewing under a fluorescence microscope. […] The tracer localization for both analogs is perinuclear and granular in appearance and is consistent with the gross distribution pattern of TSPO expression in other mononuclear cell-derived lines.

[2] = tested on: CD68+ macrophages in PC-3 PIP and PC-3 flu xenografts; test: Ex vivo fluorescence microscopy of PC-3 PIP and PC-3 flu xenografts; type: in vivo, mice
Experimental: FIG. 8 is a series of photomicrographs showing ex vivo fluorescence microscopy of DPA-713-IRDye680LT in PC-3 PIP and PC-3 flu xenografts at 24 hours post-injection. […] A & B. PIP tumor DPA-713-IRDye680LT only; C.
Ex vivo DPA-713-IRDye680LT microscopy. The mice used in the in vivo NIRF studies (PC-3 analog xenografts and MDA-MB-231 analog xenografts) were sacrificed at the end of their studies and their tumors were collected and frozen on dry ice for cryosectioning to 20 microns on charged glass slides (VWR). The sections were then probed with both anti-TSPO Ab (Novus Biologicals NBP1-45769, 1:70) labeled directly with Lissamine sulfonyl chloride (Aldrich) according to the known method and anti-CD68 Ab (Abcam ab53444, 1:40) and lastly with Hoechst 33342 (Invitrogen, 1 ng/mL). Both antibodies were added simultaneously in a 10% FBS in PBS solution applied directly to the freshly thawed sections and allowed to sit at room temperature for 1 hour. The sections were washed twice at room temperature for 5 minutes each with PBS prior to the addition of sheep-anti-rat-FITC (Abcam ab6848-1, 1:250) in PBS at room temperature for 30 minutes. The secondary antibody solution was removed and the slides were bathed in Hoechst solution (PBS) for 1.5 minutes at room temperature before being washed twice as before with PBS. The slides were then mounted in Dako Cytomation aqueous mounting media with a glass coverslip and viewed 30 minutes later using a Nikon 80i upright epifluorescence microscope equipped with a Nikon DS-QilMc darkfield CCD camera and excited by a Nikon Intensilight C-HGFI lamp. All images are recorded and processed using Nikon Imaging Software Elements.
FIG. 9 depicts a series of NIRF image showing in vivo, ex vivo and in vitro binding of DPA-713-IRDye800CW to androgen sensitive (TSPO−) LNCaP (9E), androgen insensitive (TSPO+) PC-3 prostate xenografts and TSPO+ subcutaneous and orthotopic U87 GBM xenografts.

[3] = tested on: TSPO+ PC-3 PIP and PC-3 flu prostate xenografts; test: In vivo NIRF imaging in PC-3 PIP and PC-3 flu xenograft bearing mice; parameters: species or system athymic nude mice; settings: for Distribution of fluorescent signal, tracer only: 8 nmol intraperitoneally
Experimental: (§1) FIG. 7 depicts imaging of athymic nude mice bearing two subcutaneous xenografts each consisting of one PC-3 PIP (PSMA+ stable transfected, macrophage and vasculature enriched) and PC-3 flu (PC-3 transfected with empty vector) were injected intraperitoneally with 8 nmol of DPA-713-IRDye680LT when the tumors reached 4-8 mm in diameter. […] The mice were imaged in vivo at 1 hour post-injection and again at 24 hours post-injection.
Prostate lines PC-3 PIP (PSMA stable transfected) and PC-3 flu (empty vector transfected) cells were originally a gift from Warren B. Heston (Cleveland Clinic Foundation). PC-3 is androgen insensitive and constituitively expresses TSPO. […] Intact male athymic nude mice were inoculated subcutaneously with 2×10^6 PC-3 PIP cells behind the right forearm and 2×10^6 PC-3 flu cells behind the left forearm and were allowed to grow for 14 days until they reached 1 cm in longest diameter. Mice bearing LNCaP xenografts were inoculated with 5×10^6 cells in Matrigel (1:1, vol:vol) (Becton Dickenson, Franklin Lakes, N.J.) and were allowed to grow for a year before they reached 1 cm in diameter. The mice were then used in imaging experiments as described below.
PC-3 PIP and -flu xenograft bearing mice. […] The mice were anesthetized with isoflurane gas (2% in oxygen) and imaged at 1 hour and 24 hours post-injection using the Pearl Impulse imager using the 680 absorption/710 emission channels (DPA-713-IRDye680LT). PIP/flu and LNCaP-bearing mice were imaged using the inventive probe DPA-713-IRDye800CW at 1 hour post-injection using a Perkin Elmer IVIS 200 instrument set to absorb at 790 nm and emit at 810 nm. Images were visualized and processed using the manufacturer's Living Image software.
as §1, with “Prostate tumors that have become androgen insensitive constituitively express TSPO, including the PC-3 cell line. Athymic” for “FIG. 7 depicts imaging of athymic”

CCN(CC)C(=O)Cc1c(-c2ccc(OCCNC(=O)CCCCc3cccc(C(=C\C=C4/N(CCCS(=O)(=O)O)c5ccc6c(S(=O)(=O)O)cc(S(=O)(=O)O)cc6c5C4(C)C)/C=C/C4=[N+](CCCS(=O)(=O)[O-])c5ccc6c(S(=O)(=O)O)cc(S(=O)(=O)O)cc6c5C4(C)C)c3)cc2)nn2c(C)cc(C)nc12 [DPA-713-IRDye680LT, 3-(2-((1E,3Z,5Z)-3-(3-(5-(2-(4-(3-(2-(diethylamino)-2-oxoethyl)-5,7-dimethylpyrazolo[1,5-a]pyrimidin-2-yl)phenoxy)ethylamino)-5-oxopentyl)phenyl)-5-(1,1-dimethyl-6,8-disulfo-3-(3-sulfopropyl)-1Hbenzo[e]indol-2(3H)-ylidene)penta-1,3-dienyl)-1,1-dimethyl-6,8-disulfo-1H-benzo[e]indolium-3-yl)propane-1-sulfonate]
Blocking of tracer uptake by (R,S)-PK11195 ([1]; 40 nM tracer + 1 μM (R,S)-PK11195, 24 hours): no longer blocked
Blocking of tracer uptake by (R,S)-PK11195 ([1]; 40 nM tracer + 1 μM unlabeled (R,S)-PK11195, 1 hour): widespread although incomplete blocking
Blocking of tracer uptake by unlabeled DPA-713 ([1]; 40 nM tracer + 1 μM unlabeled DPA-713, 1 hour): partial but incomplete blocking
Cell-specific accumulation of probe in prostate tumor xenografts ([2]; 24 hours of in vivo biodistribution): accumulated specifically within CD68+ macrophages
Probe accumulation, PC-3 PIP compared with PC-3 flu xenografts ([2]; 24 hours post-injection): PC-3 PIPs accumulate more
Blocking of probe accumulation by unlabeled DPA-713 ([2]; co-injection with 20 mg/kg unlabeled DPA-713, 24 hours post-injection): accumulation is blocked
Distribution of fluorescent signal, tracer only ([3]; 1 hour post-injection): only the macrophage enriched PC-3 PIP tumor is clearly visible
Distribution of fluorescent signal, tracer only ([3]; 24 hours post-injection): distributed at the periphery of both tumors in the tracer-only mouse and is strongly retained by TSPO+ kidneys
Tumor uptake with co-administered unlabeled DPA-713 ([3]; 8 nmol tracer + 20 mg/kg unlabeled DPA-713, 1 hour post-injection): Neither tumor takes up the fluorescent probe
Tumor and kidney uptake with co-injected unlabeled DPA-713 ([3]; 8 nmol tracer + 20 mg/kg unlabeled DPA-713, 24 hours post-injection): neither tumor nor kidney uptake
Clearance of unbound probe ([3]; 24 hours post-injection, intraperitoneal): cleared from the peritoneal space
